According to patent US20260256792A1, “TREATMENT OF CHRONIC SPONTANEOUS URTICARIA BY ADMINISTERING (R)-2-[3-[4-AMINO-3-(2-FLUORO-4-PHENOXY-PHENYL)PYRAZOLO[3,4-D]PYRIMIDIN-1-YL]PIPERIDINE-1-CARBONYL]-4-METHYL-4-[4-(OXETAN-3-YL)PIPERAZIN-1-YL]PENT-2-ENENITRILE” (priority 2023, published 2026):

System: angioedema in CSU patients
Assay: Phase 2 CSU study: angioedema activity score over 7 days (AAS7)
Format: in vivo, human
Details: 400 mg QPM; for AAS7 = 0, Non-responder n (%) / AAS7 = 0, OR (95% CI) for rilzabrutinib vs. placebo / AAS7 = 0, RRD (%) for rilzabrutinib vs. placebo (95% CI) / AAS7 Post-baseline Mean (SD) / Participants with AAS7 = 0, Responder n (%) / AAS7 % Change difference for rilzabrutinib vs. placebo LS Mean (95% CI) / AAS7 % Change from baseline LS Mean (SE) / AAS7 Change difference for rilzabrutinib vs. placebo LS Mean (95% CI) / AAS7 Change from baseline LS Mean (SE): angioedema at baseline; for Non-responder n (%), AAS7 = 0 / OR (95% CI) for rilzabrutinib vs. placebo, AAS7 = 0 / RRD (%) for rilzabrutinib vs. placebo (95% CI), AAS7 = 0 / Responder n (%), AAS7 = 0: outlier removed
Excerpt: The study comprises a 12 week, randomized, double-blind, placebo-controlled, multi-center, dose-ranging efficacy and safety phase, followed by a 40 week open label extension (OLE) phase (see FIG. 1). The study consists of three phases and an optional OLE phase. […] The weekly angioedema activity score (AAS7) was proposed as a tertiary endpoint. […] Patients were to complete the AAS using the e-diary. The e-diary was to be used once daily on the same time of each day recording of participant's answers to the angioedema activity score over 7 days (AAS7) questionnaire.

## CC(C)(C=C(C#N)C(=O)N1CCC[C@@H](n2nc(-c3ccc(Oc4ccccc4)cc3F)c3c(N)ncnc32)C1)N1CCN(C2COC2)CC1 [rilzabrutinib, (R)-2-[3-[4-amino-3-(2-fluoro-4-phenoxy-phenyl)pyrazolo[3,4-d]pyrimidin-1-yl]piperidine-1-carbonyl]-4-methyl-4-[4-(oxetan-3-yl)piperazin-1-yl]pent-2-enenitrile]
Week 4, omalizumab-naïve
  AAS7 = 0, Non-responder n (%): 21 (77.8) n (%)
  AAS7 = 0, OR (95% CI) for rilzabrutinib vs. placebo: 0.869
  AAS7 = 0, RRD (%) for rilzabrutinib vs. placebo (95% CI): −2.4 %
  AAS7 Post-baseline Mean (SD): 29.55 (20.68)
  Participants with AAS7 = 0, Responder n (%): 6 (22.2) n (%)
Week 5, ITT
  AAS7 % Change difference for rilzabrutinib vs. placebo LS Mean (95% CI): −0.88 (−26.37, 24.61) %
  AAS7 % Change from baseline LS Mean (SE): −54.71 (9.56) %
  AAS7 Change difference for rilzabrutinib vs. placebo LS Mean (95% CI): 1.56 (−9.31, 12.42)
  AAS7 Change from baseline LS Mean (SE): −28.04 (4.08)
  AAS7 Post-baseline Mean (SD): 25.01 (22.48)
Week 5, omalizumab-naïve
  Non-responder n (%), AAS7 = 0: 21 (56.8) n (%)
  OR (95% CI) for rilzabrutinib vs. placebo, AAS7 = 0: 0.872
  RRD (%) for rilzabrutinib vs. placebo (95% CI), AAS7 = 0: −3.4 %
  Responder n (%), AAS7 = 0: 16 (43.2) n (%)
  AAS7 % Change difference for rilzabrutinib vs. placebo LS Mean (95% CI): −1.04 (−28.01, 25.93) %
  AAS7 % Change from baseline LS Mean (SE): −55.66 (9.83) %
  AAS7 = 0, Non-responder n (%): 19 (70.4) n (%)
  AAS7 = 0, OR (95% CI) for rilzabrutinib vs. placebo: 1.079
  AAS7 = 0, RRD (%) for rilzabrutinib vs. placebo (95% CI): 1.6 %
  AAS7 Post-baseline Mean (SD): 24.55 (22.80)
  Participants with AAS7 = 0, Responder n (%): 8 (29.6) n (%)
Week 6, ITT
  AAS7 % Change difference for rilzabrutinib vs. placebo LS Mean (95% CI): 1.19 (−25.36, 27.75) %
  AAS7 % Change from baseline LS Mean (SE): −46.12 (9.92) %
  AAS7 Change from baseline LS Mean (SE): −25.61 (4.32)
  AAS7 Post-baseline Mean (SD): 27.97 (22.56)
Week 6, omalizumab-naïve
  Non-responder n (%), AAS7 = 0: 24 (64.9) n (%)
  OR (95% CI) for rilzabrutinib vs. placebo, AAS7 = 0: 0.606
  RRD (%) for rilzabrutinib vs. placebo (95% CI), AAS7 = 0: −11.4 %
  Responder n (%), AAS7 = 0: 13 (35.1) n (%)
  AAS7 % Change difference for rilzabrutinib vs. placebo LS Mean (95% CI): 2.62 (−26.14, 31.38) %
  AAS7 = 0, Non-responder n (%): 23 (85.2) n (%)
  AAS7 = 0, OR (95% CI) for rilzabrutinib vs. placebo: 0.437
  AAS7 = 0, RRD (%) for rilzabrutinib vs. placebo (95% CI): −13.0 %
  AAS7 Post-baseline Mean (SD): 28.26 (23.00)
  Participants with AAS7 = 0, Responder n (%): 4 (14.8) n (%)
Week 7, ITT
  AAS7 % Change difference for rilzabrutinib vs. placebo LS Mean (95% CI): 16.32 (−13.52, 46.16) %
  AAS7 Change difference for rilzabrutinib vs. placebo LS Mean (95% CI): 4.35 (−7.06, 15.76)
  AAS7 Change from baseline LS Mean (SE): −22.95 (4.29)
  AAS7 Post-baseline Mean (SD): 31.05 (21.43)
Week 7, omalizumab-naïve
  Non-responder n (%), AAS7 = 0: 24 (64.9) n (%)
  OR (95% CI) for rilzabrutinib vs. placebo, AAS7 = 0: 0.611
  RRD (%) for rilzabrutinib vs. placebo (95% CI), AAS7 = 0: −11.8 %
  Responder n (%), AAS7 = 0: 13 (35.1) n (%)
  AAS7 % Change difference for rilzabrutinib vs. placebo LS Mean (95% CI): 19.61 (−12.44, 51.65) %
  AAS7 = 0, OR (95% CI) for rilzabrutinib vs. placebo: 0.200
  AAS7 = 0, RRD (%) for rilzabrutinib vs. placebo (95% CI): −23.0 %
  AAS7 Post-baseline Mean (SD): 31.88 (21.51)
Week 8, ITT
  AAS7 % Change difference for rilzabrutinib vs. placebo LS Mean (95% CI): −2.51 (−32.23, 27.22) %
  AAS7 Change difference for rilzabrutinib vs. placebo LS Mean (95% CI): −1.74 (−12.55, 9.06)
  AAS7 Change from baseline LS Mean (SE): −30.07 (4.07)
  AAS7 Post-baseline Mean (SD): 24.69 (22.82)
Week 8, omalizumab-naïve
  Non-responder n (%), AAS7 = 0: 20 (54.1) n (%)
  OR (95% CI) for rilzabrutinib vs. placebo, AAS7 = 0: 1.185
  RRD (%) for rilzabrutinib vs. placebo (95% CI), AAS7 = 0: 4.2 %
  Responder n (%), AAS7 = 0: 17 (45.9) n (%)
  AAS7 % Change difference for rilzabrutinib vs. placebo LS Mean (95% CI): −4.14 (−36.36, 28.09) %
  AAS7 = 0, Non-responder n (%): 20 (74.1) n (%)
  AAS7 = 0, OR (95% CI) for rilzabrutinib vs. placebo: 0.929
  AAS7 = 0, RRD (%) for rilzabrutinib vs. placebo (95% CI): −1.3 %
  AAS7 Post-baseline Mean (SD): 24.98 (23.29)
  Participants with AAS7 = 0, Responder n (%): 7 (25.9) n (%)
Week 9, ITT
  AAS7 % Change difference for rilzabrutinib vs. placebo LS Mean (95% CI): 1.53 (−27.52, 30.59) %
  AAS7 % Change from baseline LS Mean (SE): −48.50 (10.95) %
  AAS7 Change difference for rilzabrutinib vs. placebo LS Mean (95% CI): 2.98 (−7.44, 13.40)
  AAS7 Change from baseline LS Mean (SE): −26.47 (3.93)
  AAS7 Post-baseline Mean (SD): 27.24 (21.46)
Week 9, omalizumab-naïve
  Non-responder n (%), AAS7 = 0: 24 (64.9) n (%)
  OR (95% CI) for rilzabrutinib vs. placebo, AAS7 = 0: 0.520
  RRD (%) for rilzabrutinib vs. placebo (95% CI), AAS7 = 0: −15.0 %
  Responder n (%), AAS7 = 0: 13 (35.1) n (%)
  AAS7 % Change from baseline LS Mean (SE): −47.25 (11.58) %
  AAS7 = 0, Non-responder n (%): 22 (81.5) n (%)
  AAS7 = 0, OR (95% CI) for rilzabrutinib vs. placebo: 0.431
  AAS7 = 0, RRD (%) for rilzabrutinib vs. placebo (95% CI): −15.5 %
  AAS7 Post-baseline Mean (SD): 27.96 (21.62)
  Participants with AAS7 = 0, Responder n (%): 5 (18.5) n (%)
Week 10, ITT
  AAS7 % Change difference for rilzabrutinib vs. placebo LS Mean (95% CI): −1.14 (−41.08, 38.79) %
  AAS7 % Change from baseline LS Mean (SE): −50.13 (14.94) %
  AAS7 Change difference for rilzabrutinib vs. placebo LS Mean (95% CI): 2.53 (−8.76, 13.81)
  AAS7 Change from baseline LS Mean (SE): −27.81 (4.28)
  AAS7 Post-baseline Mean (SD): 26.59 (23.15)
Week 10, omalizumab-naïve
  Non-responder n (%), AAS7 = 0: 20 (54.1) n (%)
  OR (95% CI) for rilzabrutinib vs. placebo, AAS7 = 0: 0.927
  RRD (%) for rilzabrutinib vs. placebo (95% CI), AAS7 = 0: −1.9 %
  Responder n (%), AAS7 = 0: 17 (45.9) n (%)
  AAS7 = 0, Non-responder n (%): 20 (74.1) n (%)
  AAS7 = 0, OR (95% CI) for rilzabrutinib vs. placebo: 0.616
  AAS7 = 0, RRD (%) for rilzabrutinib vs. placebo (95% CI): −9.2 %
  AAS7 Post-baseline Mean (SD): 27.70 (22.96)
  Participants with AAS7 = 0, Responder n (%): 7 (25.9) n (%)
Week 11, ITT
  AAS7 % Change difference for rilzabrutinib vs. placebo LS Mean (95% CI): 7.61 (−19.90, 35.12) %
  AAS7 Change difference for rilzabrutinib vs. placebo LS Mean (95% CI): 5.18 (−6.05, 16.41)
  AAS7 Change from baseline LS Mean (SE): −28.68 (4.16)
  AAS7 Post-baseline Mean (SD): 26.34 (24.19)
Week 11, omalizumab-naïve
  Non-responder n (%), AAS7 = 0: 20 (54.1) n (%)
  OR (95% CI) for rilzabrutinib vs. placebo, AAS7 = 0: 0.819
  RRD (%) for rilzabrutinib vs. placebo (95% CI), AAS7 = 0: −4.7 %
  Responder n (%), AAS7 = 0: 17 (45.9) n (%)
  AAS7 = 0, Non-responder n (%): 19 (70.4) n (%)
  AAS7 = 0, OR (95% CI) for rilzabrutinib vs. placebo: 0.650
  AAS7 = 0, RRD (%) for rilzabrutinib vs. placebo (95% CI): −8.6 %
  AAS7 Post-baseline Mean (SD): 27.44 (24.07)
  Participants with AAS7 = 0, Responder n (%): 8 (29.6) n (%)
Week 12, ITT
  AAS7 % Change difference for rilzabrutinib vs. placebo LS Mean (95% CI): 8.18 (−17.80, 34.16) %
  AAS7 % Change from baseline LS Mean (SE): −54.80 (9.75) %
  AAS7 Change difference for rilzabrutinib vs. placebo LS Mean (95% CI): 6.68 (−4.00, 17.35)
  AAS7 Change from baseline LS Mean (SE): −28.63 (4.01)
  AAS7 Post-baseline Mean (SD): 24.92 (22.92)
Week 12, omalizumab-naïve
  Non-responder n (%), AAS7 = 0: 24 (64.9) n (%)
  OR (95% CI) for rilzabrutinib vs. placebo, AAS7 = 0: 0.516
  RRD (%) for rilzabrutinib vs. placebo (95% CI), AAS7 = 0: −15.0 %
  Responder n (%), AAS7 = 0: 13 (35.1) n (%)
  AAS7 = 0, Non-responder n (%): 21 (77.8) n (%)
  AAS7 = 0, OR (95% CI) for rilzabrutinib vs. placebo: 0.571
  AAS7 = 0, RRD (%) for rilzabrutinib vs. placebo (95% CI): −11.2 %
  AAS7 Change difference for rilzabrutinib vs. placebo LS Mean (95% CI): 6.41 (−5.00, 17.81)
  AAS7 Change from baseline LS Mean (SE): −26.98 (4.16)
  AAS7 Post-baseline Mean (SD): 25.87 (23.04)
